# Experimental data reported in patent US8119624B2, “Fused phenyl amido heterocyclic compounds” (Pfizer Inc., priority 2006, dated 2012).
# Molecular target: T1, Full-length glucokinase (beta cell isoform) (Homo sapiens, UniProt P35557)
# T1 construct: Full-length glucokinase (beta cell isoform) was His-tagged at N-terminus; His tag (N); made in house
# T1 sequence (P35557 1-465): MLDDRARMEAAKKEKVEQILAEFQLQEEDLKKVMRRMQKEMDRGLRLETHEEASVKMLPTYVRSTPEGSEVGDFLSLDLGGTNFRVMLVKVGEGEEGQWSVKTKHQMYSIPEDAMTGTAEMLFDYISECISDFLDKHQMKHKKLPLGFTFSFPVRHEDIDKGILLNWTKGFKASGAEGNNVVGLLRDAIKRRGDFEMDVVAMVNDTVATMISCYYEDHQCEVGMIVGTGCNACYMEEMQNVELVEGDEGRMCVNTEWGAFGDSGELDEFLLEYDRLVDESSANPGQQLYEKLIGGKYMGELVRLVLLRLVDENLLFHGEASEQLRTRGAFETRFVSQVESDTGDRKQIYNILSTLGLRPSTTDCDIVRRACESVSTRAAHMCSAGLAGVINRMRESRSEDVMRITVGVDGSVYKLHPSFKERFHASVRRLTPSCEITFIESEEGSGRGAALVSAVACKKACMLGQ
# Experiment: Glucokinase biochemical assay (PK/LDH-coupled, NADH depletion at 340 nm): % activation, EC50, % max activation
# Conditions: 5 mM glucose; for activation at 10 µM: 10 uM compound, % Activation=(Va/Vo−1)×100, read-out: % Activation at 10 uM; for EC50: GK activation, read-out: EC50; for Emax: fitted maximum activation, read-out: % Max Activation
# In short: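 Activation expressed as (Va/Vo−1)×100, where initial rates with and without compound come from NADH depletion at 340 nm over 200–900 s. Enzyme is His-tagged human beta-cell GK, full length, run at room temperature in HEPES buffer with 1 mM ATP and 5 mM glucose. DMSO 1%.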
activation at 10 µM,EC50,Emax,SMILES
70.1%,9.4 µM,102%,"Cn1cc(C(=O)COc2cc(C(=O)Nc3ccn(C)n3)cc3c2CC(C)(C)O3)cn1 [Example 105, 2,2-Dimethyl-4-[2-(1-methyl-1H-pyrazol-4-yl)-2-oxo-ethoxy]-2,3-dihydro-benzofuran-6-carboxylic acid (1-methyl-1H-pyrazol-3-yl)-amide]"
143%,2.4 µM,141%,"Cc1ncccc1COc1cc(C(=O)Nc2ccn(C)n2)cc2c1CC(C)(C)O2 [Example 106, 2,2-Dimethyl-4-(2-methyl-pyridin-3-ylmethoxy)-2,3-dihydro-benzofuran-6-carboxylic acid (1-methyl-1H-pyrazol-3-yl)-amide]"
173%,0.097 µM,163%,"CN(C)C(=O)c1ccc(Oc2cc(C(=O)Nc3ccn(C)n3)cc3c2CC(C)(C)O3)c(Cl)c1 [Example 107, 4-(2-Chloro-4-dimethylcarbamoyl-phenoxy)-2,2-dimethyl-2,3-dihydro-benzofuran-6-carboxylic acid (1-methyl-1H-pyrazol-3-yl)-amide]"
82.2%,0.076 µM,107%,"CN(C)C(=O)c1ccc(Oc2cc(C(=O)Nc3ccn(C)n3)cc3c2CC(C)(C)O3)cc1Cl [Example 108, 4-(3-Chloro-4-dimethylcarbamoyl-phenoxy)-2,2-dimethyl-2,3-dihydro-benzofuran-6-carboxylic acid (1-methyl-1H-pyrazol-3-yl)-amide]"
86.9%,0.28 µM,83%,"CN(C)C(=O)c1cc(F)c(Oc2cc(C(=O)Nc3ccn(C)n3)cc3c2CC(C)(C)O3)cc1F [Example 109, 4-(4-Dimethylcarbamoyl-2,5-difluoro-phenoxy)-2,2-dimethyl-2,3-dihydro-benzofuran-6-carboxylic acid (1-methyl-1H-pyrazol-3-yl)-amide]"
139%,0.072 µM,131%,"Cn1ccc(NC(=O)c2cc(Oc3cc(F)c(C(=O)N4CCC4)c(F)c3)c3c(c2)OC(C)(C)C3)n1 [Example 110, 4-[4-(Azetidine-1-carbonyl)-3,5-difluoro-phenoxy]-2,2-dimethyl-2,3-dihydro-benzofuran-6-carboxylic acid (1-methyl-1H-pyrazol-3-yl)-amide]"
85.2%,0.045 µM,115%,"CN(C)C(=O)c1c(F)cc(Oc2cc(C(=O)Nc3ccn(C)n3)cc3c2CC(C)(C)O3)cc1F [Example 111, 4-(4-Dimethylcarbamoyl-3,5-difluoro-phenoxy)-2,2-dimethyl-2,3-dihydro-benzofuran-6-carboxylic acid (1-methyl-1H-pyrazol-3-yl)-amide]"
130%,0.044 µM,153%,"CCNC(=O)c1c(F)cc(Oc2cc(C(=O)Nc3ccn(C)n3)cc3c2CC(C)(C)O3)cc1F [Example 112, 4-(4-Ethylcarbamoyl-3,5-difluoro-phenoxy)-2,2-dimethyl-2,3-dihydro-benzofuran-6-carboxylic acid (1-methyl-1H-pyrazol-3-yl)-amide]"
239%,2.6 µM,265%,"Cn1ccc(NC(=O)c2cc(Oc3cc(F)cc(F)c3)c3c(c2)OC(C)(C)C3)n1 [Example 113, 4-(3,5-Difluoro-phenoxy)-2,2-dimethyl-2,3-dihydro-benzofuran-6-carboxylic acid (1-methyl-1H-pyrazol-3-yl)-amide]"
156%,0.203 µM,164%,"Cn1ccc(NC(=O)c2cc(Oc3ccc(S(C)(=O)=O)c(F)c3)c3c(c2)OC(C)(C)C3)n1 [Example 114, 4-(3-Fluoro-4-methanesulfonyl-phenoxy)-2,2-dimethyl-2,3-dihydro-benzofuran-6-carboxylic acid (1-methyl-1H-pyrazol-3-yl)-amide]"
79.7%,8.8 µM,141%,"Cn1ccc(NC(=O)c2cc(Oc3cc(F)ccc3S(C)(=O)=O)c3c(c2)OC(C)(C)C3)n1 [Example 115, 4-(5-Fluoro-2-methanesulfonyl-phenoxy)-2,2-dimethyl-2,3-dihydro-benzofuran-6-carboxylic acid (1-methyl-1H-pyrazol-3-yl)-amide]"
110%,0.073 µM,112%,"Cc1ccc(NC(=O)c2cc(Oc3ccc(S(C)(=O)=O)c(F)c3)c3c(c2)OC(C)(C)C3)nc1 [Example 116, 4-(3-Fluoro-4-methanesulfonyl-phenoxy)-2,2-dimethyl-2,3-dihydro-benzofuran-6-carboxylic acid (5-methyl-pyridin-2-yl)-amide]"

# Further lines, the molecule ahead of its results:
SMILES,activation at 10 µM,EC50,Emax
"Cn1ccc(NC(=O)c2cc(OCCCC#N)c3c(c2)OC(C)(C)C3)n1 [Example 93, 4-(3-Cyano-propoxy)-2,2-dimethyl-2,3-dihydro-benzofuran-6-carboxylic acid (1-methyl-1H-pyrazol-3-yl)-amide]",95.2%,9.7 µM,136%
"Cc1noc(COc2cc(C(=O)Nc3ccn(C)n3)cc3c2CC(C)(C)O3)n1 [Example 94, 2,2-Dimethyl-4-(3-methyl-[1,2,4]oxadiazol-5-ylmethoxy)-2,3-dihydro-benzofuran-6-carboxylic acid (1-methyl-1H-pyrazol-3-yl)-amide]",116%,4.4 µM,140%
"Cn1ccc(NC(=O)c2cc(OCc3cc(O)nc(C4CC4)n3)c3c(c2)OC(C)(C)C3)n1 [Example 95, 4-(2-Cyclopropyl-6-hydroxy-pyrimidin-4-ylmethoxy)-2,2-dimethyl-2,3-dihydro-benzofuran-6-carboxylic acid (1-methyl-1H-pyrazol-3-yl)-amide]",143%,0.625 µM,145%
"Cc1nc(COc2cc(C(=O)Nc3ccn(C)n3)cc3c2CC(C)(C)O3)no1 [Example 96, 2,2-Dimethyl-4-(5-methyl-[1,2,4]oxadiazol-3-ylmethoxy)-2,3-dihydro-benzofuran-6-carboxylic acid (1-methyl-1H-pyrazol-3-yl)-amide]",107%,7.3 µM,148%
"Cn1ccc(NC(=O)c2cc(OCC(=O)c3ccc(CO)cc3)c3c(c2)OC(C)(C)C3)n1 [Example 97, 4-[2-(4-Hydroxymethyl-phenyl)-2-oxo-ethoxy]-2,2-dimethyl-2,3-dihydro-benzofuran-6-carboxylic acid (1-methyl-1H-pyrazol-3-yl)-amide]",131%,3.4 µM,123%
"Cn1ccc(NC(=O)c2cc(OCc3nc(-c4ccccn4)no3)c3c(c2)OC(C)(C)C3)n1 [Example 98, 2,2-Dimethyl-4-(3-pyridin-2-yl-[1,2,4]oxadiazol-5-ylmethoxy)-2,3-dihydro-benzofuran-6-carboxylic acid (1-methyl-1H-pyrazol-3-yl)-amide]",154%,1.6 µM,165%
"Cc1ncsc1CCOc1cc(C(=O)Nc2ccn(C)n2)cc2c1CC(C)(C)O2 [Example 99, 2,2-Dimethyl-4-[2-(4-methyl-thiazol-5-yl)-ethoxy]-2,3-dihydro-benzofuran-6-carboxylic acid (1-methyl-1H-pyrazol-3-yl)-amide]",112%,4.3 µM,136%
"CCCc1noc(COc2cc(C(=O)Nc3ccn(C)n3)cc3c2CC(C)(C)O3)n1 [Example 100, 2,2-Dimethyl-4-(3-propyl-[1,2,4]oxadiazol-5-ylmethoxy)-2,3-dihydro-benzofuran-6-carboxylic acid (1-methyl-1H-pyrazol-3-yl)-amide]",171%,1.6 µM,156%
"COC(C)CCOc1cc(C(=O)Nc2ccn(C)n2)cc2c1CC(C)(C)O2 (stereo not drawn) [Example 101, 4-(3-Methoxy-butoxy)-2,2-dimethyl-2,3-dihydro-benzofuran-6-carboxylic acid (1-methyl-1H-pyrazol-3-yl)-amide]",94.7%,6 µM,125%
"C[C@@H](CO)COc1cc(C(=O)Nc2ccn(C)n2)cc2c1CC(C)(C)O2 [Example 102, 4-((S)-3-Hydroxy-2-methyl-propoxy)-2,2-dimethyl-2,3-dihydro-benzofuran-6-carboxylic acid (1-methyl-1H-pyrazol-3-yl)-amide]",92.6%,8.8 µM,137%
"Cc1ccc(C(=O)COc2cc(C(=O)Nc3ccn(C)n3)cc3c2CC(C)(C)O3)cn1 [Example 103, 2,2-Dimethyl-4-[2-(6-methyl-pyridin-3-yl)-2-oxo-ethoxy]-2,3-dihydro-benzofuran-6-carboxylic acid (1-methyl-1H-pyrazol-3-yl)-amide]",78.9%,4.7 µM,94%
"CCc1nc(O)cc(COc2cc(C(=O)Nc3ccn(C)n3)cc3c2CC(C)(C)O3)n1 [Example 104, 4-(2-Ethyl-6-hydroxy-pyrimidin-4-ylmethoxy)-2,2-dimethyl-2,3-dihydro-benzofuran-6-carboxylic acid (1-methyl-1H-pyrazol-3-yl)-amide]",149%,1.8 µM,134%
